Results from patent US20240158446A1, “CYCLIC COMPOUND HAVING SELECTIVE INHIBITORY ACTION ON KRAS OVER HRAS AND NRAS” (CHUGAI SEIYAKU KABUSHIKI KAISHA, priority 2021, published 2024).
Where a SMILES comes first, the peptide text is derived from it. Bridges are numbered along the chain shown (N, C = ends). [ ]: non-standard residue; d: D form. The star is where a group is joined. hPhe(3-Cl-4-CF3) = N[C@@H](CCc1ccc(C(F)(F)F)c(Cl)c1)C(=O)O; NPrPhe(4-CF3) = CCCN[C@@H](Cc1ccc(C(F)(F)F)cc1)C(=O)O; NMeGly(cPent) = CN[C@H](C(=O)O)C1CCCC1; Pro(4,4-F2) = O=C(O)[C@@H]1CC(F)(F)CN1; Hyp = O=C(O)[C@@H]1C[C@@H](O)CN1; NMeL = CN[C@@H](CC(C)C)C(=O)O; Morpholide = C1CN(*)CCO1; Ac5c = NC1(C(=O)O)CCCC1; Ac4c = NC1(C(=O)O)CCC1; NEtG = CCNCC(=O)O; Sar = CNCC(=O)O

Tests used:
[1] = molecular target: GDP-bound KRAS wild-type protein (Homo sapiens, UniProt P01116); test: Binding to KRAS by surface plasmon resonance (SPR), Single Cycle Kinetics; conditions: SPR Single Cycle Kinetics, GDP-bound KRAS wild-type protein, 1:1 binding model; read-out: KRAS KD
Sequence of GDP-bound KRAS wild-type protein (P01116 whole entry): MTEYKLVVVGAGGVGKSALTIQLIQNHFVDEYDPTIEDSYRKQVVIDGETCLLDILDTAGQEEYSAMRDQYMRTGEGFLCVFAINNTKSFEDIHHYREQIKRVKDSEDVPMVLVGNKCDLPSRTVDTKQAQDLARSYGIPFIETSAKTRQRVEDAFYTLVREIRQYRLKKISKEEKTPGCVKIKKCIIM

[2] = molecular target: GDP-bound NRAS wild-type protein (Homo sapiens, UniProt P01111); test: Binding to NRAS by surface plasmon resonance (SPR), Single Cycle Kinetics; conditions: SPR, GDP-bound NRAS wild-type protein vs GDP-bound KRAS wild-type protein
Sequence of GDP-bound NRAS wild-type protein (P01111 whole entry): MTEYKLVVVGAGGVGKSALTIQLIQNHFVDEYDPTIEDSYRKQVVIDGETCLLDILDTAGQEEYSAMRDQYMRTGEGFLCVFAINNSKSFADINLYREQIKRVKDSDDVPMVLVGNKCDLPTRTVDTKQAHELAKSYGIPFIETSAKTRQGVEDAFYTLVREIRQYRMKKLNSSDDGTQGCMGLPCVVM

[3] = molecular target: GDP-bound HRAS wild-type protein (Homo sapiens, UniProt P01112); test: Binding to HRAS by surface plasmon resonance (SPR), Single Cycle Kinetics; conditions: SPR, GDP-bound HRAS wild-type protein vs GDP-bound KRAS wild-type protein
Sequence of GDP-bound HRAS wild-type protein (P01112 whole entry): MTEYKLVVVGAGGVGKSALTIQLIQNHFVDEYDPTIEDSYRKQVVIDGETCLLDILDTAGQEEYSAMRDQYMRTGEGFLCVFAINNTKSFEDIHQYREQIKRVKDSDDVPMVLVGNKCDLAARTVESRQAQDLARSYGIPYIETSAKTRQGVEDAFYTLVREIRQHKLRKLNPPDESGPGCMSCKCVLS

Kd [1] [nM] | SMILES | NRAS/KRAS (ratio of KD value for NRAS to KD value for KRAS) [2] | HRAS/KRAS (ratio of KD value for HRAS to KD value for KRAS) [3]
1 | CCCN1C(=O)CN(C)C(=O)CN(C)C(=O)[C@H]([C@@H](C)CC)NC(=O)[C@H](CC(C)C)N(C)C(=O)C[C@@H](C(=O)N2CCOCC2)NC(=O)[C@H](C2CCCC2)N(C)C(=O)C2(CCCC2)NC(=O)[C@@H]2CC(F)(F)CN2C(=O)[C@H](CCc2ccc(C(F)(F)F)c(Cl)c2)NC(=O)CN(C)C(=O)[C@@H]1Cc1ccc(C(F)(F)F)cc1 [PP0321] ([NMeL]I[Sar][Sar][NPrPhe(4-CF3)][Sar][hPhe(3-Cl-4-CF3)][Pro(4,4-F2)][Ac5c][NMeGly(cPent)]D-Morpholide; lactam N-11) | B (a compound having 3 or more and less than 10 is denoted as B) | B (a compound having 3 or more and less than 10 is denoted as B)
0.84 | CCCN1C(=O)CN(C)C(=O)CN(C)C(=O)[C@H]([C@@H](C)CC)NC(=O)[C@H](CC(C)C)N(C)C(=O)C[C@@H](C(=O)N2CCOCC2)NC(=O)[C@H](C2CCCC2)N(C)C(=O)C2(CCC2)NC(=O)[C@@H]2CC(F)(F)CN2C(=O)[C@H](CCc2ccc(C(F)(F)F)c(Cl)c2)NC(=O)CN(C)C(=O)[C@@H]1Cc1ccc(C(F)(F)F)cc1 [PP0322] ([NMeL]I[Sar][Sar][NPrPhe(4-CF3)][Sar][hPhe(3-Cl-4-CF3)][Pro(4,4-F2)][Ac4c][NMeGly(cPent)]D-Morpholide; lactam N-11) | B (a compound having 3 or more and less than 10 is denoted as B) | C (A compound having a KD ratio of 0.1 or more and less than 3 is denoted as C)
0.25 | CCCN1C(=O)CN(C)C(=O)CN(C)C(=O)[C@H]([C@@H](C)CC)NC(=O)[C@H](CC(C)C)N(C)C(=O)C[C@@H](C(=O)N2CCOCC2)NC(=O)[C@H](C2CCCC2)N(C)C(=O)C2(CCCC2)NC(=O)[C@@H]2C[C@@H](OCC)CN2C(=O)[C@H](CCc2ccc(C(F)(F)F)c(Cl)c2)NC(=O)CN(C)C(=O)[C@@H]1Cc1ccc(C(F)(F)F)cc1 [PP0323] ([NMeL]I[Sar][Sar][NPrPhe(4-CF3)][Sar][hPhe(3-Cl-4-CF3)][Hyp](Et)[Ac5c][NMeGly(cPent)]D-Morpholide; lactam N-11) | B (a compound having 3 or more and less than 10 is denoted as B) | B (a compound having 3 or more and less than 10 is denoted as B)
0.41 | CCCN1C(=O)CN(C)C(=O)CN(C)C(=O)[C@H]([C@@H](C)CC)NC(=O)[C@H](CC(C)C)N(C)C(=O)C[C@@H](C(=O)N2CCOCC2)NC(=O)[C@H](C2CCCC2)N(C)C(=O)C2(CCC2)NC(=O)[C@@H]2C[C@@H](OCC)CN2C(=O)[C@H](CCc2ccc(C(F)(F)F)c(Cl)c2)NC(=O)CN(C)C(=O)[C@@H]1Cc1ccc(C(F)(F)F)cc1 [PP0324] ([NMeL]I[Sar][Sar][NPrPhe(4-CF3)][Sar][hPhe(3-Cl-4-CF3)][Hyp](Et)[Ac4c][NMeGly(cPent)]D-Morpholide; lactam N-11) | B (a compound having 3 or more and less than 10 is denoted as B) | B (a compound having 3 or more and less than 10 is denoted as B)
1.1 | CCCN1C(=O)CN(C)C(=O)CNC(=O)[C@H]([C@@H](C)CC)NC(=O)[C@H](CC(C)C)N(C)C(=O)C[C@@H](C(=O)N2CCOCC2)NC(=O)[C@H](C2CCCC2)N(C)C(=O)C2(CCCC2)NC(=O)[C@@H]2CCCN2C(=O)[C@H](CCc2ccc(C(F)(F)F)c(Cl)c2)NC(=O)CN(C)C(=O)[C@@H]1Cc1ccc(C(F)(F)F)cc1 [PP0325] ([NMeL]IG[Sar][NPrPhe(4-CF3)][Sar][hPhe(3-Cl-4-CF3)]P[Ac5c][NMeGly(cPent)]D-Morpholide; lactam N-11) | B (a compound having 3 or more and less than 10 is denoted as B) | B (a compound having 3 or more and less than 10 is denoted as B)
1.5 | CCCN1C(=O)CN(C)C(=O)CNC(=O)[C@H]([C@@H](C)CC)NC(=O)[C@H](CC(C)C)N(C)C(=O)C[C@@H](C(=O)N2CCOCC2)NC(=O)[C@H](C2CCCC2)N(C)C(=O)C2(CCC2)NC(=O)[C@@H]2CCCN2C(=O)[C@H](CCc2ccc(C(F)(F)F)c(Cl)c2)NC(=O)CN(C)C(=O)[C@@H]1Cc1ccc(C(F)(F)F)cc1 [PP0326] ([NMeL]IG[Sar][NPrPhe(4-CF3)][Sar][hPhe(3-Cl-4-CF3)]P[Ac4c][NMeGly(cPent)]D-Morpholide; lactam N-11) | B (a compound having 3 or more and less than 10 is denoted as B) | B (a compound having 3 or more and less than 10 is denoted as B)
1.9 | CCCN1C(=O)CN(C)C(=O)CNC(=O)[C@H]([C@@H](C)CC)NC(=O)[C@H](CC(C)C)N(C)C(=O)C[C@@H](C(=O)N2CCOCC2)NC(=O)[C@H](C2CCCC2)N(C)C(=O)C2(CCCC2)NC(=O)[C@@H]2CC(F)(F)CN2C(=O)[C@H](CCc2ccc(C(F)(F)F)c(Cl)c2)NC(=O)CN(C)C(=O)[C@@H]1Cc1ccc(C(F)(F)F)cc1 [PP0327] ([NMeL]IG[Sar][NPrPhe(4-CF3)][Sar][hPhe(3-Cl-4-CF3)][Pro(4,4-F2)][Ac5c][NMeGly(cPent)]D-Morpholide; lactam N-11) | B (a compound having 3 or more and less than 10 is denoted as B) | B (a compound having 3 or more and less than 10 is denoted as B)
1.6 | CCCN1C(=O)CN(C)C(=O)CNC(=O)[C@H]([C@@H](C)CC)NC(=O)[C@H](CC(C)C)N(C)C(=O)C[C@@H](C(=O)N2CCOCC2)NC(=O)[C@H](C2CCCC2)N(C)C(=O)C2(CCC2)NC(=O)[C@@H]2CC(F)(F)CN2C(=O)[C@H](CCc2ccc(C(F)(F)F)c(Cl)c2)NC(=O)CN(C)C(=O)[C@@H]1Cc1ccc(C(F)(F)F)cc1 [PP0328] ([NMeL]IG[Sar][NPrPhe(4-CF3)][Sar][hPhe(3-Cl-4-CF3)][Pro(4,4-F2)][Ac4c][NMeGly(cPent)]D-Morpholide; lactam N-11) | B (a compound having 3 or more and less than 10 is denoted as B) | B (a compound having 3 or more and less than 10 is denoted as B)
0.74 | CCCN1C(=O)CN(C)C(=O)CNC(=O)[C@H]([C@@H](C)CC)NC(=O)[C@H](CC(C)C)N(C)C(=O)C[C@@H](C(=O)N2CCOCC2)NC(=O)[C@H](C2CCCC2)N(C)C(=O)C2(CCCC2)NC(=O)[C@@H]2C[C@@H](OCC)CN2C(=O)[C@H](CCc2ccc(C(F)(F)F)c(Cl)c2)NC(=O)CN(C)C(=O)[C@@H]1Cc1ccc(C(F)(F)F)cc1 [PP0329] ([NMeL]IG[Sar][NPrPhe(4-CF3)][Sar][hPhe(3-Cl-4-CF3)][Hyp](Et)[Ac5c][NMeGly(cPent)]D-Morpholide; lactam N-11) | B (a compound having 3 or more and less than 10 is denoted as B) | C (A compound having a KD ratio of 0.1 or more and less than 3 is denoted as C)
0.95 | CCCN1C(=O)CN(C)C(=O)CNC(=O)[C@H]([C@@H](C)CC)NC(=O)[C@H](CC(C)C)N(C)C(=O)C[C@@H](C(=O)N2CCOCC2)NC(=O)[C@H](C2CCCC2)N(C)C(=O)C2(CCC2)NC(=O)[C@@H]2C[C@@H](OCC)CN2C(=O)[C@H](CCc2ccc(C(F)(F)F)c(Cl)c2)NC(=O)CN(C)C(=O)[C@@H]1Cc1ccc(C(F)(F)F)cc1 [PP0330] ([NMeL]IG[Sar][NPrPhe(4-CF3)][Sar][hPhe(3-Cl-4-CF3)][Hyp](Et)[Ac4c][NMeGly(cPent)]D-Morpholide; lactam N-11) | B (a compound having 3 or more and less than 10 is denoted as B) | C (A compound having a KD ratio of 0.1 or more and less than 3 is denoted as C)
2.8 | CCCN1C(=O)CN(C)C(=O)CN(CC)C(=O)[C@H]([C@@H](C)CC)NC(=O)[C@H](CC(C)C)N(C)C(=O)C[C@@H](C(=O)N2CCOCC2)NC(=O)[C@H](C2CCCC2)N(C)C(=O)C2(CCCC2)NC(=O)[C@@H]2CCCN2C(=O)[C@H](CCc2ccc(C(F)(F)F)c(Cl)c2)NC(=O)CN(C)C(=O)[C@@H]1Cc1ccc(C(F)(F)F)cc1 [PP0331] ([NMeL]I[NEtG][Sar][NPrPhe(4-CF3)][Sar][hPhe(3-Cl-4-CF3)]P[Ac5c][NMeGly(cPent)]D-Morpholide; lactam N-11) | B (a compound having 3 or more and less than 10 is denoted as B) | B (a compound having 3 or more and less than 10 is denoted as B)
3.2 | CCCN1C(=O)CN(C)C(=O)CN(CC)C(=O)[C@H]([C@@H](C)CC)NC(=O)[C@H](CC(C)C)N(C)C(=O)C[C@@H](C(=O)N2CCOCC2)NC(=O)[C@H](C2CCCC2)N(C)C(=O)C2(CCC2)NC(=O)[C@@H]2CCCN2C(=O)[C@H](CCc2ccc(C(F)(F)F)c(Cl)c2)NC(=O)CN(C)C(=O)[C@@H]1Cc1ccc(C(F)(F)F)cc1 [PP0332] ([NMeL]I[NEtG][Sar][NPrPhe(4-CF3)][Sar][hPhe(3-Cl-4-CF3)]P[Ac4c][NMeGly(cPent)]D-Morpholide; lactam N-11) | B (a compound having 3 or more and less than 10 is denoted as B) | B (a compound having 3 or more and less than 10 is denoted as B)
